Here are results for 5 molecules from US20130274338A1, “PHARMACEUTICAL COMPOSITIONS COMPRISING DGLA, 15-OHEPA, AND/OR 15-HETRE AND METHODS OF REDUCING SEBUM PRODUCTION USING SAME” (priority 2012, published 2013).

Values after ≈ are worked out from the molar mass of the structure shown.

One data set concerns P. acnes. The data set is described as follows: Agar dilution method, growth of P. acnes and MIC, single compounds. In kind it is cell-based, Propionibacterium acnes. Set-up: key to Growth Index Plate 1 / Growth Index Plate 2 / Growth Index Plate 3 / Growth Index Avg: +++: confluent growth (comparable to control); ++: less confluent growth; +: marked reduction in growth to multiple tiny, single colonies; −: no growth present. The note with it: for MIC: Cutibacterium acnes, compound alone, MIC = concentration with marked reduction (+) of growth, read-out: MIC (mg/mL) as per P-11-0007 or P-11-0008 Addendum A. The procedure: Several compounds including fatty acids such as DGLA, 15-OHEPA, and 15-HETrE were tested to determine their capacity to inhibit the growth of P. acnes. In an exemplary method, an agar dilution method was used to determine the minimum inhibitory concentration (MIC) of each tested compound. Briefly, the agar dilution method involved preparing a series of concentrations of each compound (e.g., nicotinamide, benzoyl peroxide, adapalene, metronidazole, DGLA, 15-OHEPA, and 15-HETrE) in a Reinforced Clostridial Agar (RCA) media that facilitates growth of P. acnes under anaerobic conditions. An inoculum of P. acnes was prepared by incubation of P. acnes for approximately seven days at 35-37° C. to achieve a ≧1.0 OD600 inoculum of P. acnes in RCM broth. A portion of this inoculum was then added to the surface of each plate as a 10 μL spot and incubated at 35-37° C. for 72 hours or more. Growth of P. acnes was then observed and compared to control plates in which no compound has been added, and positive inhibition plates prepared with erythromycin. […] The growth of P. acnes in the presence of nicotinamide, benzoyl peroxide, adapalene, metronidazole, DGLA, 15-OHEPA, and 15-HETrE was determined with varying concentrations of the compound (see, Table 2). Next, the MIC was determined as the concentration at which a marked reduction (+) occurs in the appearance of growth on the test plate (as per Clinical and Laboratory Standards Institute M11-A7).

Data set [1] relates to immortalized sebocyte cell line. Nature of the data set: Sebocyte proliferation: viability (M.T.T. test) and morphology after 72 hours. The note with it: Homo sapiens. Format: cell-based.
Data set [2] has the same test system. The description is as above. In kind it is cell-based, human. From the text: In an embodiment, the pharmacodynamics of a composition comprising DGLA, 15-OHEPA, or 15-HETrE as disclosed herein may be examined using a model of sebum production. In an embodiment, the effects of a composition comprising DGLA, 15-OHEPA, or 15-HETrE as disclosed herein on the proliferation and/or differentiation of sebocytes serves as a model for the pharmacodynamics on sebum production (see, e.g., U.S. Patent Application Publication No. US 2010/0278948, the contents of which are incorporated by reference). In an exemplary method, primary sebocytes are isolated from skin tissue (e.g., human scalp tissue). The isolated primary sebocytes are then immortalized, and the resulting cell line is divided into discrete cultures. Discrete cultures can then be treated with various concentrations of a composition comprising DGLA, 15-OHEPA, or 15-HETrE as disclosed herein. For comparison, a negative control (e.g., a culture of an immortalized sebocyte cell line left untreated) and/or a positive control (e.g., treatment of an immortalized sebocyte cell line with a compound known to inhibit sebocyte growth such as isotretinoin) can be maintained alongside of the test cultures. In an embodiment, a pharmacodynamic assay is maintained for an amount of time suitable to observe differences (if any) between the various immortalized sebocyte cell cultures, for example less than about 24 hours, about 24 hours, about 48 hours, about 72 hours, about 96 hours, about 120 hours, about 144 hours, more than about 144 hours, etc. The effect of treating an immortalized sebocyte cell culture with a given composition or compound can be determined by quantifying, for example and without limitation, the viability of the cultures (e.g., the percent viability and/or mean percent viability). The effect of treating an immortalized sebocyte cell culture with a given composition or compound can be determined by qualitatively assessing, for example and without limitation, morphological changes in the culture. In an embodiment, changes in the morphology of the culture may be classified as: no change (e.g., “normal” population), reduced growth (e.g., “growth reduction”), toxic changes (e.g., “toxicity”), and/or cell death (e.g., “cell mortality”).
The compounds tested in Example 1 were tested to determine the capacity of each to reduce sebum production. In an exemplary method, each compound's ability to inhibit the growth of an immortalized sebocyte cell line was determined.
Primary sebocytes were isolated from sebaceous glands obtained from dissections of human scalp tissue. The primary sebocytes were immortalized and the resulting cell culture was used to study the effects of DGLA and 15-HETrE on sebocyte cell proliferation. Individual cell cultures were treated with eight concentrations of DGLA (1.00 μM, 4.00 μM, […], 37.00 μM, 111.00 μM, 333.00 μM, 1000.00 μM, and 3000.00 μM), and eight concentrations of 15-HETrE (0.50 1.00 4.00 10.00 40.00 110.00 330.00 1000.00). As a positive control, individual cell cultures were treated with eight concentrations of Isotretinoin. Negative control cultures were also maintained. After 72 hours, the mean percent viability for each of the cultures was determined by colorimetry (M.T.T. test) according to J. Mosmann, J. Immunol. Meth., vol. 65, pp. 55-63 (1983), and morphological differences were also observed at that time (see Table 9).

With `CC[C@H]1OC(=O)[C@H](C)[C@@H](O[C@H]2C[C@@](C)(OC)[C@@H](O)[C@H](C)O2)[C@H](C)[C@@H](O[C@@H]2O[C@H](C)C[C@H](N(C)C)[C@H]2O)[C@](C)(O)C[C@@H](C)C(=O)[C@H](C)[C@@H](O)[C@]1(C)O` [Erythromycin], the MIC in the data set with P. acnes fell in the range of 0.01 to 0.05 µg/mL (≈ 0.0136 to 0.0681 µM).
As for `CCCCC/C=C\C/C=C\C/C=C\CCCCCCC(=O)O` [DGLA, cis-8,11,14-eicosatrienoic acid], the “effect on growth of P. acnes on its own” value with P. acnes (0.4 mg/ml) is recorded as “no effect”. In the data set on P. acnes, the MIC was in the range of 400 to 600 µg/mL (≈ 1310 to 1960 µM). The “Growth Index Avg” value is recorded as “+++” in the data set on P. acnes (compound at 0.2 mg/mL); “+++” in the data set with P. acnes (compound at 0.4 mg/mL); “+” with P. acnes (compound at 0.6 mg/mL); “+” in the data set on P. acnes (compound at 0.8 mg/mL); “+” in the data set with P. acnes (compound at 1.0 mg/mL). The “Growth Index Plate 1” value in the data set on P. acnes (compound at 0.2 mg/mL) is given as “+++”; with P. acnes (compound at 0.4 mg/mL) it was “+++”; with P. acnes (compound at 0.6 mg/mL), “++”; with P. acnes (compound at 0.8 mg/mL), “++”; in the data set with P. acnes (compound at 1.0 mg/mL), “+”. Also, the “Growth Index Plate 2” value was “+++” in the data set on P. acnes (compound at 0.2 mg/mL); “+++” in the data set on P. acnes (compound at 0.4 mg/mL); “−” in the data set with P. acnes (compound at 0.6 mg/mL); “+” in the data set on P. acnes (compound at 0.8 mg/mL); “+” in the data set on P. acnes (compound at 1.0 mg/mL). The “Growth Index Plate 3” value in the data set on P. acnes (compound at 0.2 mg/mL) is reported as “+++”; in the data set on P. acnes (compound at 0.4 mg/mL), “+++”; in the data set on P. acnes (compound at 0.6 mg/mL) it was “++”; in the data set with P. acnes (compound at 0.8 mg/mL), “+”; in the data set with P. acnes (compound at 1.0 mg/mL), “+”. In addition, the viability at 12 µM in data set [1] came to 63%. Further, the viability at 1 µM in data set [2] (Homo sapiens, 1.00 μM, 72 hours) came to 107%. The viability at 4 µM in data set [2] (Homo sapiens, 4.00 μM, 72 hours) worked out at 97%. In data set [2] (Homo sapiens, 37.00 μM, 72 hours), the viability at 37 µM was determined as 1%. Moreover, in data set [2] (Homo sapiens, 111.00 μM, 72 hours), the viability at 111 µM worked out at 2%. The viability at 333 µM in data set [2] (Homo sapiens, 333.00 μM, 72 hours) was found to be 1%. Besides, the viability at 1000 µM in data set [2] (Homo sapiens, 1000.00 μM, 72 hours) was 1%. Moreover, the viability at 3000 µM in data set [2] (Homo sapiens, 3000.00 μM, 72 hours) turned out to be 3%.
As for `CCC=CCC(O)C=CC=CCC=CCC=CCCCC(=O)O` (stereo not drawn) [15-OHEPA, 15-Hydroxy-eicosa-5,8,11,13,17-pentaenoic acid], in the data set with P. acnes (0.05 mg/mL), the “effect on growth of P. acnes on its own” value is recorded as “no effect”. Moreover, in the data set with P. acnes, the MIC was 50 to 75 µg/mL (≈ 157 to 236 µM). Further, the “Growth Index Avg” value is listed as “+++” in the data set on P. acnes (compound at 0.010 mg/mL); “+++” in the data set with P. acnes (compound at 0.025 mg/mL); “+++” with P. acnes (compound at 0.050 mg/mL); “+” in the data set with P. acnes (compound at 0.075 mg/mL); “−” in the data set with P. acnes (compound at 0.1 mg/mL). The “Growth Index Plate 1” value in the data set on P. acnes (compound at 0.010 mg/mL) is given as “+++”; in the data set with P. acnes (compound at 0.025 mg/mL) it was “+++”; in the data set on P. acnes (compound at 0.050 mg/mL), “+++”; in the data set on P. acnes (compound at 0.075 mg/mL), “+”; in the data set with P. acnes (compound at 0.1 mg/mL) it was “−”. For the same molecule, the “Growth Index Plate 2” value is “+++” with P. acnes (compound at 0.010 mg/mL); “+++” in the data set on P. acnes (compound at 0.025 mg/mL); “+++” in the data set with P. acnes (compound at 0.050 mg/mL); “+” with P. acnes (compound at 0.075 mg/mL); “−” with P. acnes (compound at 0.1 mg/mL). The “Growth Index Plate 3” value in the data set on P. acnes (compound at 0.010 mg/mL) is “+++”; with P. acnes (compound at 0.025 mg/mL), “+++”; in the data set with P. acnes (compound at 0.050 mg/mL) it was “+++”; with P. acnes (compound at 0.075 mg/mL) it was “+”; with P. acnes (compound at 0.1 mg/mL), “−”.
Regarding `CC1=C(/C=C/C(C)=C/C=C/C(C)=C\C(=O)O)C(C)(C)CCC1` [Isotretinoin], the “Morphological Observations” value in data set [2] (1.11 μM, 72 hours) is on record as “toxicity”. Further, the viability at 0.005 µM in data set [2] (Homo sapiens, 0.005 μM, 72 hours) came to 105%. In addition, the viability at 0.014 µM in data set [2] (Homo sapiens, 0.014 μM, 72 hours) was 110%. For the same molecule, in data set [2] (Homo sapiens, 0.041 μM, 72 hours), the viability at 0.041 µM came to 103%. Besides, the viability at 0.123 µM in data set [2] (Homo sapiens, 0.123 μM, 72 hours) amounted to 96%. Also, the viability at 0.37 µM in data set [2] (Homo sapiens, 0.370 μM, 72 hours) turned out to be 88%. In addition, the viability at 1.11 µM in data set [2] (Homo sapiens, 1.11 μM, 72 hours) stood at 76%. Besides, in data set [2] (Homo sapiens, 3.33 μM, 72 hours), the viability at 3.33 µM amounted to 8%. In addition, the viability at 10 µM in data set [2] (Homo sapiens, 10.00 μM (10 μM), 72 hours) is 1%.
With `CCCCCC(O)/C=C/C=C\C/C=C\CCCCCCC(=O)O` (stereo not drawn) [15-HETrE, 15-hydroxy-eicosa-8(Z),11(Z),13(E)-trienoic acid], the “effect on growth of P. acnes on its own” value in the data set with P. acnes (0.01 mg/ml) was “no effect”. The “Growth Index Avg” value in the data set on P. acnes (compound at 0.00001 mg/mL) is “+++”; in the data set on P. acnes (compound at 0.0001 mg/mL) it was “+++”; with P. acnes (compound at 0.001 mg/mL), “+++”; in the data set on P. acnes (compound at 0.01 mg/mL) it was “++”; in the data set with P. acnes (compound at 0.05 mg/mL), “−”. Also, the “Growth Index Plate 1” value with P. acnes (compound at 0.00001 mg/mL) was “+++”; in the data set with P. acnes (compound at 0.0001 mg/mL) it was “+++”; in the data set on P. acnes (compound at 0.001 mg/mL) it was “+++”; in the data set with P. acnes (compound at 0.01 mg/mL) it was “++”; with P. acnes (compound at 0.05 mg/mL), “−”. In addition, the “Growth Index Plate 2” value with P. acnes (compound at 0.00001 mg/mL) was “+++”; with P. acnes (compound at 0.0001 mg/mL) it was “+++”; with P. acnes (compound at 0.001 mg/mL), “+++”; in the data set with P. acnes (compound at 0.01 mg/mL) it was “+++”; in the data set on P. acnes (compound at 0.05 mg/mL), “−”. The “Growth Index Plate 3” value is “+++” in the data set on P. acnes (compound at 0.00001 mg/mL); “+++” in the data set with P. acnes (compound at 0.0001 mg/mL); “+++” with P. acnes (compound at 0.001 mg/mL); “++” in the data set with P. acnes (compound at 0.01 mg/mL); “−” in the data set with P. acnes (compound at 0.05 mg/mL). Besides, the “Mean % Viability” value was found to be 85% in data set [2] (0.5 µM); 77% in data set [2] (1 µM); 52% in data set [2] (4 µM); 18% in data set [2] (10 µM); 1% in data set [2] (40 µM); 1% in data set [2] (110 µM). Further, the “Mean % Viability” value in data set [2] (330 µM) and in data set [2] (1000 µM) was 0% in each case. In addition, the “Morphological Observations” value in data set [2] (4.00 μM, 72 hours) was “toxicity”; in data set [2] (10.00 μM (10 μM), 72 hours), “toxicity”.

In general, viability refers to a read-out of living cells in per cent, often relative to untreated cells.
